Laboratory results reported in patent US11958813B2, “Uracil compound containing carboxylate fragment, preparation method therefor, and herbicidal composition and use thereof” (JIANGSU FLAG CHEMICAL INDUSTRY CO., LTD., priority 2021, dated 2024).

How the values were obtained:
Assay in all cases: Greenhouse herbicidal activity test, post-emergence
Assay type in all cases: in vivo
Alopecurus japonicus = details: determined 21 days later; for inhibition at 7.5 g/ha / inhibition at 15 g/ha: Alopecurus japonicus, 504 h, read-out: fresh weight inhibition rate, Alopecurus japonicus
Excerpt: (§1) A herbicidal activity test method for the compounds of the present invention was as follows:
(§2) Post-emergence: an appropriate quantity of seeds of gramineous weeds (Echinochloa crusgalli, Eleusine indica, Digitaria sanguinalis, Alopecurus japonicus, Beckmannia syzigachne, Leptochloa chinensis, Polypogon fugax, Alopecurus aequalis, Lolium multiflorum, and Poa annua), broad-leaved weeds (Eclipta prostrata, Amaranthus retroflexus, Brassica juncea, Malachium aquaticum, Conyza canadensis, and Sesbania cannabina), and Cyperus iria were sown in plastic pots having a diameter of 7 cm and holes at the bottom and filled with nutrient soil (sandy soil, pH 6.1, organic matter 1%) respectively, the seeds were covered with an appropriate amount of soil after being sown, then the soil was wetted with water from the bottom, the seeds were cultured in a constant-temperature illuminated culture room until a 2-4 leaf stage, and stems and leaves underwent spray treatment. After the treatment, the test materials were placed in a laboratory and cultured in the constant-temperature illuminated culture room after the liquid was naturally dry in the shade, and results were determined 21 days later.
(§3) According to the foregoing test method, a parallel experiment was carried out on herbicidal activities of some compounds of the general formula (I), the compound Butafenacil (compound 47 in the patent specification) specifically disclosed in U.S. Pat. No. 5,183,492A, and the compound CK (compound 1 in the patent specification) specifically disclosed in U.S. Pat. No. 5,183,492A, at application doses of 7.5 g a.i./ha and 15 g a.i./ha.

Sesbania cannabina = details: determined 21 days later; for inhibition at 7.5 g/ha / inhibition at 15 g/ha: Sesbania cannabina, 504 h, read-out: fresh weight inhibition rate, Sesbania cannabina
Excerpt: as §1, §2, §3

Polypogon fugax = details: determined 21 days later; for inhibition at 7.5 g/ha / inhibition at 15 g/ha: Polypogon fugax, 504 h, read-out: fresh weight inhibition rate, Polypogon fugax
Excerpt: as §1, §2, §3

Structure (SMILES) | inhibition at 7.5 g/ha (Alopecurus japonicus; dose 7.5 g a.i./ha) [%] | inhibition at 15 g/ha (Alopecurus japonicus; dose 15 g a.i./ha) [%] | inhibition at 7.5 g/ha (Sesbania cannabina; dose 7.5 g a.i./ha) [%] | inhibition at 15 g/ha (Sesbania cannabina; dose 15 g a.i./ha) [%] | inhibition at 7.5 g/ha (Polypogon fugax; dose 7.5 g a.i./ha) [%] | inhibition at 15 g/ha (Polypogon fugax; dose 15 g a.i./ha) [%] | fresh weight inhibition rate, Alopecurus japonicus (Alopecurus japonicus; dose 7.5 g a.i./ha) | fresh weight inhibition rate, Alopecurus japonicus (Alopecurus japonicus; dose 15 g a.i./ha) | fresh weight inhibition rate, Sesbania cannabina (Sesbania cannabina; dose 7.5 g a.i./ha) | fresh weight inhibition rate, Sesbania cannabina (Sesbania cannabina; dose 15 g a.i./ha) | fresh weight inhibition rate, Polypogon fugax (Polypogon fugax; dose 7.5 g a.i./ha) | fresh weight inhibition rate, Polypogon fugax (Polypogon fugax; dose 15 g a.i./ha)
C=CCOC(=O)C(C)(C)OC(=O)c1cc(-n2c(=O)cc(C(F)(F)F)n(C)c2=O)ccc1Cl [Butafenacil, reference compound] | < 55 | < 55 | 55 to 70 | 70 to 85 | < 55 | 55 to 70 |  |  |  |  |  | 
COC(=O)C(C)OC(=O)c1cc(-n2c(=O)cc(C(F)(F)F)n(C)c2=O)c(F)cc1Cl (stereo not drawn) [CK, reference compound] | < 55 | 55 to 70 | 55 to 70 | 70 to 85 | < 55 | 55 to 70 |  |  |  |  |  | 
COCCOC(=O)COC(=O)c1cc(-n2c(=O)cc(C(F)(F)F)n(C)c2=O)c(F)cc1Cl [Compound 3] |  |  |  |  |  |  | B (B indicates that the inhibition rate was greater than or equal to 70% to less than 85%) | A (A indicates that the inhibition rate was greater than or equal to 85% to 100%) | A (A indicates that the inhibition rate was greater than or equal to 85% to 100%) | A (A indicates that the inhibition rate was greater than or equal to 85% to 100%) | B (B indicates that the inhibition rate was greater than or equal to 70% to less than 85%) | A (A indicates that the inhibition rate was greater than or equal to 85% to 100%)
COCCOC(=O)C(C)(C)OC(=O)c1cc(-n2c(=O)cc(C(F)(F)F)n(C)c2=O)c(F)cc1Cl [Compound 207] |  |  |  |  |  |  | A (A indicates that the inhibition rate was greater than or equal to 85% to 100%) | A (A indicates that the inhibition rate was greater than or equal to 85% to 100%) | A (A indicates that the inhibition rate was greater than or equal to 85% to 100%) | A (A indicates that the inhibition rate was greater than or equal to 85% to 100%) | A (A indicates that the inhibition rate was greater than or equal to 85% to 100%) | A (A indicates that the inhibition rate was greater than or equal to 85% to 100%)
C=CCOCCOC(=O)C(C)(C)OC(=O)c1cc(-n2c(=O)cc(C(F)(F)F)n(C)c2=O)c(F)cc1Cl [Compound 214] |  |  |  |  |  |  | A (A indicates that the inhibition rate was greater than or equal to 85% to 100%) | A (A indicates that the inhibition rate was greater than or equal to 85% to 100%) | A (A indicates that the inhibition rate was greater than or equal to 85% to 100%) | A (A indicates that the inhibition rate was greater than or equal to 85% to 100%) | A (A indicates that the inhibition rate was greater than or equal to 85% to 100%) | A (A indicates that the inhibition rate was greater than or equal to 85% to 100%)
COCCOC(=O)C1(OC(=O)c2cc(-n3c(=O)cc(C(F)(F)F)n(C)c3=O)c(F)cc2Cl)CC1 [Compound 258] |  |  |  |  |  |  | A (A indicates that the inhibition rate was greater than or equal to 85% to 100%) | A (A indicates that the inhibition rate was greater than or equal to 85% to 100%) | A (A indicates that the inhibition rate was greater than or equal to 85% to 100%) | A (A indicates that the inhibition rate was greater than or equal to 85% to 100%) | A (A indicates that the inhibition rate was greater than or equal to 85% to 100%) | A (A indicates that the inhibition rate was greater than or equal to 85% to 100%)
